{"source": "paper PMC7247319", "about": "“The mitochondria-targeted peptide SS-31 binds lipid bilayers and modulates surface electrostatics as a key component of its mechanism of action” (The Journal of Biological Chemistry, 2020)", "test_in_all_cases": "SS-31 binding isotherms by endogenous 2′,6′-Dmt fluorescence (peptide and lipid titrations)", "key": {"[1]": {"tested_on": "LUVs containing 20 mol % MLCL in a POPC background", "details": "20% MLCL/POPC LUVs, 20 mM HEPES-KOH pH 7.5, Scatchard and Langmuir fits of fluorescence isotherms", "description": "(§1) The interaction of basic amphipathic peptides with negatively charged membranes depends on the electric field originating from the bilayer surface as well as specific electrostatic and hydrophobic interactions between the peptide and lipids (Fig. S2). The first objective of this study was to quantitatively evaluate the binding of SS-31 to model membranes with specific lipid composition. For spectroscopic analysis of SS-31 binding, we made use of the endogenous spectral properties of the 2′,6′-dimethyltyrosine (2′,6′-Dmt) side chain at the second position in the peptide. Our initial spectral characterization of SS-31 confirmed the feasibility of using endogenous peptide fluorescence to quantify peptide-membrane interactions (supporting Results A and B and Figs. S3 and S4). We therefore proceeded to measure the binding of SS-31 to large unilamellar vesicles (LUVs) containing anionic lipids in a host background of the zwitterionic lipid 1-palmitoyl-2-oleoyl-sn-glycero-3-phosphocholine (POPC, 16:0/18:1 PC). The anionic lipids included 1′,3′-bis[1,2-dioleoyl-sn-glycero-3-phospho]-glycerol (tetraoleoylcardiolipin (TOCL), all acyl chains 18:1), monolysocardiolipin (MLCL, all acyl chains 18:1), or 1-palmitoyl-2-oleoyl-sn-glycero-3-phosphoglycerol (POPG, 16:0/18:1 PG). Binding measurements were performed using two complementary approaches: (i) titration of fixed concentrations of LUVs with peptide and (ii) titration of fixed concentrations of peptide with LUVs (supporting Results C and Fig. S5). […]\n(§2) Figure 2. […] A–C, fluorescence-based measurements. […] Statistical differences within each data set were determined relative to TOCL-containing membranes: •, p < 0.05; ••, p < 0.01.\n(§3) To obtain equilibrium binding parameters n (the number of lipid molecules per peptide bound) and KD (the dissociation constant), we analyzed binding isotherm data by Scatchard analysis (Fig. 2C) and by fits of the data to Langmuir adsorption models (Equations S2 and S3 for peptide and lipid titrations, respectively). […]"}, "[2]": {"tested_on": "LUVs containing 20 mol % POPG in a POPC background", "details": "20% POPG/POPC LUVs, 20 mM HEPES-KOH pH 7.5, Scatchard and Langmuir fits of fluorescence isotherms", "description": "as §1, §2, §3"}, "[3]": {"tested_on": "LUVs containing 20 mol % TOCL in a POPC background", "details": "20% TOCL/POPC LUVs, 20 mM HEPES-KOH pH 7.5, Scatchard and Langmuir fits of fluorescence isotherms", "description": "as §1, §2, §3"}}, "note": "Where a SMILES comes first, the peptide text is derived from it. [ ]: non-standard residue; d: D form. Dmt = Cc1cc(O)cc(C)c1C[C@H](N)C(=O)O", "data": [{"smiles": "Cc1cc(O)cc(C)c1C[C@H](NC(=O)[C@H](N)CCCNC(=N)N)C(=O)N[C@@H](CCCCN)C(=O)N[C@@H](Cc1ccccc1)C(N)=O", "note": "[SS-31, D-Arg-2′6′-dimethyl-Tyr-Lys-Phe-NH2] (H-[dR][Dmt]KF-NH2)", "values": [{"measurement": "n (number of lipid molecules per peptide bound), average lipid/peptide stoichiometry", "setting": "[1]", "result": 7.4}, {"measurement": "n (number of lipid molecules per peptide bound), average lipid/peptide stoichiometry", "setting": "[2]", "result": 15.4}, {"measurement": "n (number of lipid molecules per peptide bound), average lipid/peptide stoichiometry", "setting": "[3]", "result": 6.9}]}]}
